Laboratory results reported in patent publication US8044075B2, “IL-8 receptor antagonists” (GlaxoSmithKline, priority 2006, dated 2011).

Tested on: Primary human neutrophils
Assay: Neutrophil chemotaxis assay (IL-8 or GRO-α as chemoattractant)
Format: cell-based
Settings: 0.75 h, IL-8 or GRO-α at EC80, 45 minutes, span over all compounds tested, units (nM, uM) given within the value, read-out: IC50 range of the compounds tested, neutrophil chemotaxis
Experimental: The in vitro inhibitory properties of these compounds were determined in a neutrophil chemotaxis assay. Primary human neutrophils were isolated from peripheral whole blood using percoll discontinuous gradient centrifugation, dextran sedimentation and hypotonic lysis. The chemoattractants IL-8 (CXCL8) or GRO-α (CXCL1) were placed in the bottom chamber of a 96 multi-well chamber (ChemoTx System, Neuro Probe, Gaithersburg, Md.). The agonist concentration used was an EC80 concentration. The two chambers are separated by a 5 um polycarbonate membrane. When compounds of this invention were tested, they were preincubated with the cells prior to placement on the top of the filter. Chemotaxis was allowed to proceed for 45 minutes in a humidified incubator at 37° C. with 5% CO2. At the end of the incubation period, the membrane was removed and the migrated cells in the bottom chamber were transferred to a 96-well plate. These cells were measured using a luminescent cell viability assay (Celltiter-Glo, Promega, Madison, Wis.). Each sample was tested in duplicate and each compound repeated at least three times. Positive control cells were cells without compound added and represent the maximum chemotactic response. The negative control (unstimulated) was with no chemokine added to the bottom chamber. The difference between the positive control and the negative control represents the chemotactic activity of the cells.

SMILES | IC50 [nM]
CCNS(=O)(=O)c1ccc(F)c(C(=O)Nc2nnc(C(C)(C)c3ccccc3)s2)c1 [Example 1, 5-[(ethylamino)sulfonyl]-2-fluoro-N-[5-(1-methyl-1-phenylethyl)-1,3,4-thiadiazol-2-yl]benzamide] | 63 to 8000
CCNS(=O)(=O)c1cc(F)c(F)c(C(=O)Nc2nnc(-c3ccc(F)cc3)s2)c1 [Example 6, 5-[(ethylamino)sulfonyl]-2,3-difluoro-N-[5-(4-fluorophenyl)-1,3,4-thiadiazol-2-yl]benzamide] | 63 to 8000
CC(C)CNS(=O)(=O)c1ccc(F)c(C(=O)Nc2nnc(-c3ccc(F)cc3)s2)c1 [Example 18, 2-fluoro-N-[5-(4-fluorophenyl)-1,3,4-thiadiazol-2-yl]-5-{[(2-methylpropyl)amino]sulfonyl}benzamide] | 63 to 8000
O=C(Nc1nnc(-c2ccc(F)cc2)s1)c1cc(S(=O)(=O)Nc2ccccc2)ccc1F [Example 20, 2-fluoro-N-[5-(4-fluorophenyl)-1,3,4-thiadiazol-2-yl]-5-[(phenylamino)sulfonyl]benzamide] | 63 to 8000
CCNS(=O)(=O)c1cc(F)c(Cl)c(C(=O)Nc2nnc(-c3ccc(F)cc3)s2)c1 [Example 22, 2-chloro-5-[(ethylamino)sulfonyl]-3-fluoro-N-[5-(4-fluorophenyl)-1,3,4-thiadiazol-2-yl]-benzamide] | 63 to 8000
CCNS(=O)(=O)c1cc(F)c(F)c(C(=O)Nc2nnc(C(C)(C)C)s2)c1 [Example 27, N-[5-(1,1-dimethylethyl)-1,3,4-thiadiazol-2-yl]-5-[(ethylamino)sulfonyl]-2,3-difluorobcnzamidc] | 63 to 8000
CCNS(=O)(=O)c1cc(F)c(F)c(C(=O)Nc2nnc(C(C)(C)c3ccccc3)s2)c1 [Example 29, 5-[(ethylamino)sulfonyl]-2,3-difluoro-N-[5-(1-methyl-1-phenylethyl)-1,3,4-thiadiazol-2-yl]benzamide] | 63 to 8000
CC(C)(c1ccccc1)c1nnc(NC(=O)c2cc(S(N)(=O)=O)cc(Cl)c2Cl)s1 [Example 36, 5-(aminosulfonyl)-2,3-dichloro-N-[5-(1-methyl-1-phenylethyl)-1,3,4-thiadiazol-2-yl]benzamide] | 63 to 8000
CC(C)(C)c1nnc(NC(=O)c2cc(S(N)(=O)=O)ccc2F)s1 [Example 39, 5-(aminosulfonyl)-N-[5-(1,1-dimethylethyl)-1,3,4-thiadiazol-2-yl]-2-fluorobenzamide] | 63 to 8000
NS(=O)(=O)c1ccc(F)c(C(=O)Nc2nnc(-c3ccc(F)cc3)s2)c1 [Example 44, 5-(aminosulfonyl)-2-fluoro-N-[5-(4-fluorophenyl)-1,3,4-thiadiazol-2-yl] benzamide] | 63 to 8000
CC(C)(c1ccccc1)c1nnc(NC(=O)c2cc(S(=O)(=O)NC3CC3)ccc2F)s1 [Example 49, 5-[(cyclopropylamino)sulfonyl]2-fluoro-N-[5-(1-methyl-1-phenylethyl)-1,3,4-thiadiazol-2-yl]benzamide] | 63 to 8000
CCNS(=O)(=O)c1ccc(F)c(C(=O)Nc2nnc(C3(C)CCCCC3)s2)c1 [Example 57, 5-[(cthylamino)sulfonyl]-2-fluoro-N-[5-(1-methylcyclohexyl)-1,3,4-thiadiazol-2-yl] benzamide] | 63 to 8000
CCNS(=O)(=O)c1ccc(F)c(C(=O)Nc2nnc(C3CCCC3)s2)c1 [Example 58, N-(5-cyclopentyl-1,3,4-thiadiazol-2-yl)-5-[(ethylamino)sulfonyl]-2-fluorobenzamide] | 63 to 8000
CCNS(=O)(=O)c1ccc(F)c(C(=O)Nc2nnc(C3(C)CCCC3)s2)c1 [Example 59, 5-[(ethylamino)sulfonyl]-2-fluoro-N-[5-(1-methylcyclopentyl)-1,3,4-thiadiazol-2-yl]benzamide] | 63 to 8000
CCNS(=O)(=O)c1ccc(F)c(C(=O)Nc2nnc(C(C)(C)c3ccccc3F)s2)c1 [Example 63, 5-[(ethylamino)sulfonyl]-2-fluoro-N-{5-[1-(2-fluorophenyl)-1-methylethyl]-1,3,4-thiadiazol-2-yl}-benzamide] | 63 to 8000
O=C(Nc1nnc(C2(c3cccc(F)c3)CCC2)s1)c1cc(S(=O)(=O)NCC(F)(F)F)ccc1F [Example 72, 2-fluoro-N-{5-[1-(3-fluorophenyl)-cyclobutyl]-1,3,4-thiadiazol-2-yl}-5-([(2,2,2-trifluoroethyl)amino]-sulfonyl}benzamide] | 63 to 8000
CCNS(=O)(=O)c1ccc(F)c(C(=O)Nc2nnc(C3(c4cccc(F)c4)CCC3)s2)c1 [Example 76, 5-[(ethylamino)sulfonyl]-2-fluoro-N-{5-[1-(3-fluorophenyl)-cyclobutyl]-1,3,4-thiadiazol-2-yl}-benzamide] | 63 to 8000
O=C(Nc1nnc(C2(c3cccc(F)c3)CCC2)s1)c1cc(S(=O)(=O)NCC2CC2)ccc1F [Example 77, 5-{[(cyclopropylmethyl)amino]sulfonyl}-2-fluoro-N-{5-[1-(3-fluorophenyl)-cyclobutyl]-1,3,4-thiadiazol-2-yl}-benzamide] | 63 to 8000
CCNS(=O)(=O)c1ccc(F)c(C(=O)Nc2nnc(C3(c4ccccc4)CCC3)s2)c1 [Example 92, 5-[(ethylamino)sulfonyl]-2-fluoro-N-[5-(1-phenylcyclobutyl)-1,3,4-thiadiazol-2-yl]-benzamide] | 63 to 8000

Tested on: GROα-induced expression of the integrin CD11b on neutrophils in human whole blood
Assay: CD11b human whole blood assay
Format: cell-based
Settings: Neutrophil, 10 nM GROα, read-out: IC50, inhibition of GROα-induced CD11b expression
Experimental: The compounds indicated were tested for their ability to inhibit the GROα-induced expression of the integrin CD11b on neutrophils in human whole blood.
Blood was drawn (9 ml) using a butterfly line and a 10 ml syringe containing 0.2 ml of working Sodium Heparin. The blood was kept at 37° C. until placed on ice in step 5 below. Compound stock solutions were then diluted to 12 times the maximum final concentration, 120 uM. Half Log serial dilutions were then performed in vehicle. Ten microliters of the compound dilutions or vehicle were then added to the appropriate 12×75 polypropylene tubes. One hundred microliters of whole blood was added per tube and incubated for 10 minutes, in a 37° C. water bath with initial (gentle) agitation and again at 5 minutes. The GROα stock was diluted 1:166.66 in 0.1% BSA-DPBS to “12x” concentration of 120 nM and 10 ul of the GROα dilution or 0.1% BSA-DPBS was added to the appropriate tubes so that the final GROα concentration equaled 10 nM. The tubes were incubated for 10 min at 37° C. with gentle hand agitation and again at 5 minutes. Samples were then placed on ice and 250 ul of ice cold CellFix working dilution was added followed by a one minute incubation on ice. 1.5 ml Eppendorf tubes were readied during GROα incubation by adding the appropriate antibodies. Every tube received 10 ul of CD11b-FITC and 5 ul of CD 16-PE, except for the isotype control which received 10 ul of IgG2a-FITC instead of CD11b. Addition of 50 ul of the fixed blood from each tube was added to the appropriate Eppendorf tube. Samples were allowed to then incubate for 20 min at 4° C. in the dark. Addition of the blood/antibody mixtures to 500 ul of cold DPBS were added to the appropriately labeled 12×75 polystyrene tube. The resulting mixture was kept on ice. LDS stock (10 ul) was added and the mixture was incubated for 10 min at 4° C. before flow analysis. Samples were kept in a darkened environment. The LDS addition was staggered as the samples were collected on the flow cytometer so that all samples were run ˜10-20 minutes post-LDS addition. […]

SMILES | IC50 [µM]
CCNS(=O)(=O)c1ccc(F)c(C(=O)Nc2nnc(C(C)(C)C)s2)c1 [Example 28, N-[5-(1,1-dimcthylcthyl)-1,3,4-thiadiazol-2-yl]-5-[(ethylamino)sulfonyl]-2-fluorobenzamide] | < 5
CCNS(=O)(=O)c1ccc(F)c(C(=O)Nc2nnc(C3(c4ccccc4)CCCC3)s2)c1 [Example 52, 5-[(ethylamino)sulfonyl]-2-fluoro-N-[5-(1-phenylcyclopentyl)-1,3,4-thiadiazol-2-yl]benzamide] | < 5
CC(C)(c1ccccc1)c1nnc(NC(=O)c2cc(S(N)(=O)=O)ccc2F)s1 [Example 61, 5-(aminosulfonyl)-2-fluoro-N-[5-(1-methyl-1-phenylethyl)-1,3,4-thiadiazol-2-yl]-benzamide] | < 5
